# Legend:
# Format in all cases: biochemical
# [1] = molecular target: T1, Sirt2 (α-tubulin Lys40 deacetylation) (Homo sapiens, UniProt Q8IXJ6); assay: Tubulin deacetylation assay in HEK cell lysates with added Sirt2; conditions: 100 μM compound, 1 μg Sirt2
# T1 construct: Human gene fragment comprising Sirt2 residues 34-356; His-tag with linker comprising a TEV protease cleavage site (N, cleaved yes); made in house; host or cells: E. coli Rosetta2; the protein was added to HEK 293T cell lysate
# T1 sequence (Q8IXJ6 34-356): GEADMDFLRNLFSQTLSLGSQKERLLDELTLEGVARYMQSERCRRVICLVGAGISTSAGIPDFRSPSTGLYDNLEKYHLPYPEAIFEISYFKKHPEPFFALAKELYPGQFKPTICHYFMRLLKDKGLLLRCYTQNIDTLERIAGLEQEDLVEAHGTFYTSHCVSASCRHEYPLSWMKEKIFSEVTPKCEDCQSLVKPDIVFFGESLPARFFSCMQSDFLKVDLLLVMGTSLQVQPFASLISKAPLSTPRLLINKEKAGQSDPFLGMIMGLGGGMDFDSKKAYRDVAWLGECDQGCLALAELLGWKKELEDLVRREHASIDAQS
# Experimental: Our novel compounds 3 and 4 are potent and specific Sirt2 inhibitors in vitro, and we next tested the effect of 4 (compound 3 is likely to be sensitive to esterase activity in lysates) on the Sirt2-dependent deacetylation of an in vivo substrate in a physiological environment. The acetylation levels of the Sirt2-deacetylation site Lys40 in α-tubulin [12] were analyzed in HEK cell lysates by using an acetyl-Lys40 specific antibody (Figure 4a). […] Thus, compound 4 is an inhibitor for the physiological α-tubulin deacetylation activity of Sirt2.
# HEK 293T cells were grown in DMEM medium (PAN Biotech) supplemented with 10% fetal bovine serum (PAN Biotech) at 37°C and 5% CO2. Cells were harvested, washed with PBS, and resuspended and lysed using hypotonic buffer (10mM Tris-HCl, pH 8.0, 3mM KCl) supplemented with protease inhibitors cocktail. Cell debris was removed by centrifugation (10,000g, 10 minutes) at 4°C, and 50μl reaction were prepared with identical amounts of cell lysate and either 100 μM compound 4, 1 μg Sirt2, or both. All samples further contained the same amount of DMSO (to account for the solvent of the stock of 4) and 25 mM HEPES (pH 7.5; to compensate for the solvent of the NAD^+ stock). […]
# [2] = molecular target: T2, Sirt6 (Homo sapiens, UniProt Q8N6T7); assay: Fluor-de-Lys peptide deacetylation assay, Sirt6
# T2 construct: Sirt6 residues 13-308; His-tag with linker comprising a TEV protease cleavage site (N, cleaved yes); made in house; host or cells: E. coli Rosetta2
# Outline: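 Fluor-de-Lys kit run with FdL-1 peptide RHK(acetyl-K), 0.1 mM, plus 0.5 mM NAD+. Compounds at 100 μM final, 30 min at 37 °C, then trypsin developer for 45 min at room temperature.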
# [3] = molecular target: T3, Sirt2 (Homo sapiens, UniProt Q8IXJ6); assay: Fluor-de-Lys peptide deacetylation assay, Sirt2
# T3 sequence (Q8IXJ6 34-356): T1 sequence (Q8IXJ6 34-356)
# Outline: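 Full-length human Sirt2 (E. coli-expressed, purified, His-tag removed) incubated 30 min at 37 °C with 0.1 mM FdL-2 peptide (QPK(acetyl-K)), 0.5 mM NAD+ and compound at 100 μM final in kit buffer. Values corrected with compound-only (no Sirtuin) controls; screen in duplicate, dose-response in triplicate.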
# T2 sequence (Q8N6T7 13-308): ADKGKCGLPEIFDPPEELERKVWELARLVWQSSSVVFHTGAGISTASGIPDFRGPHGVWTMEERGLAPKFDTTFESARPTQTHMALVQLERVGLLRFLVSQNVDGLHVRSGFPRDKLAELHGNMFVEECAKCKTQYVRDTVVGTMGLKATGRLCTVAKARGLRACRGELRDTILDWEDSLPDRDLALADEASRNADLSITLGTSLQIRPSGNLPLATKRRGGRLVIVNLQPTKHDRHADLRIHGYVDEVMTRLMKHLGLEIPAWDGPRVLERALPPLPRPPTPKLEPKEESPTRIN
smiles,measurement,setting,value
"CC12Cc3cnc(-c4ccccc4)nc3CC1CCC1C2CCC2(C)C1CCC2(C)O (centres unmarked) [CSC13, 1,11a,13a-trimethyl-8-phenyl-2,3,3a,3b,4,5,5a,6,11,11a,11b,12,13,13a-tetradecahydro-1H-cyclopenta[5,6]naphtho[1,2-g]quinazolin-1-ol]",effect on Sirt2-dependent α-tubulin Lys40 deacetylation,[1],the deacetylation effect was decreased
same,Effect on the activity of Sirt6,[2],--- (key: inhibition: significant inhibitory effects (>25% loss of activity); ---: no such effect)
same,Effect on the activity of Sirt2,[3],inhibition (key: inhibition: significant inhibitory effects (>25% loss of activity); ---: no such effect)
same,IC50,[3],9.7 ± 1.5 µM
same,inhibition at 100 µM,[3]; read-out: Sirt2 inhibition in the screen,~80%

# Reference: publication PMC3227451, “Structure-based development of novel sirtuin inhibitors” (Aging (Albany NY), 2011)
